Blank lines part the entries; values can stand above or below the compound they belong to.
How the values were obtained:
[1] = target: T1, Prostaglandin G/H synthase 1 (Ovis aries, UniProt P05979); test: Inhibition of ovine COX1 using arachidonic acid as substrate preincubated for 10 mins followed by substrate addition and measured after 2 mins by EIA
T1 sequence (P05979 whole entry): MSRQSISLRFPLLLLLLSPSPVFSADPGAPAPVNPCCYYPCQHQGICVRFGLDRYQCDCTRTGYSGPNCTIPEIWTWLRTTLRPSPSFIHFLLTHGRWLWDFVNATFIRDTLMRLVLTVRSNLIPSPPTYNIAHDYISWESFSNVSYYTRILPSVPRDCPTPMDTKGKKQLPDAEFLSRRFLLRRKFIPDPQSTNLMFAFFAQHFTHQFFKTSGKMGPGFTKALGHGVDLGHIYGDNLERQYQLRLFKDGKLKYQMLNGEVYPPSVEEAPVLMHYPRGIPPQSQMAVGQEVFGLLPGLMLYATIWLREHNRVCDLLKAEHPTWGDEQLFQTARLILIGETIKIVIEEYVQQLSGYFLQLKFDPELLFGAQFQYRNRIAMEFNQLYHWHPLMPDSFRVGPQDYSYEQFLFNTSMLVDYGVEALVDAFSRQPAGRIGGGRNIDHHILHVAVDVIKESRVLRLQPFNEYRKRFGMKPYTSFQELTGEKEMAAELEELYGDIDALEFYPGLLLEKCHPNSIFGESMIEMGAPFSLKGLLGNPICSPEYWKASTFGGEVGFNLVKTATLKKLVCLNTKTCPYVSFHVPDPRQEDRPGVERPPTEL

[2] = Inhibition of soybean 15-LOX using arachidonic acid or linoleic acid as substrate preincubated for 5 mins followed by substrate addition and measured after 10 mins by colorimetric assay; design: species or system Glycine max
[3] = target: T2, Prostaglandin G/H synthase 2 (Homo sapiens, UniProt P35354); test: Inhibition of COX2 (unknown origin)
T2 sequence (P35354 whole entry): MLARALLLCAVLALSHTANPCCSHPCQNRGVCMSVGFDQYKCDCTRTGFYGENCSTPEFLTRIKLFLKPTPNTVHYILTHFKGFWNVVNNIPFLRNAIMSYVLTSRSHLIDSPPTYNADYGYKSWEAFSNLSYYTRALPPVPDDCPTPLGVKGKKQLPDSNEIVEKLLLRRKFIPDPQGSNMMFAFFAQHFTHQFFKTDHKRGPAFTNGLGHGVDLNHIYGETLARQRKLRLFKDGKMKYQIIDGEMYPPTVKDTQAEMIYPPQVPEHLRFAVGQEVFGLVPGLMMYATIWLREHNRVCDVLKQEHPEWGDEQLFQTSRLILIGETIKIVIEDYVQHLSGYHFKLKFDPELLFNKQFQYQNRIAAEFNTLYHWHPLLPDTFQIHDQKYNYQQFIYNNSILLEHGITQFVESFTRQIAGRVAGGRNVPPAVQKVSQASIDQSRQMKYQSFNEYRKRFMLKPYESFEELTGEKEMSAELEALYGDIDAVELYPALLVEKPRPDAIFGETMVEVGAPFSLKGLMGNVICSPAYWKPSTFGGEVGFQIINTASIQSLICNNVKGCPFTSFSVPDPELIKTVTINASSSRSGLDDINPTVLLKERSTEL

[4] = test system: Rattus norvegicus; test: Antiinflammatory activity in albino rat assessed as reduction in carrageenan-induced paw edema by measuring thickness of right paw at 28 uM/kg, ip measured at 1 hr by calliper method (reference value: 7.33 +/- 0.17 cm); assay type: functional
[5] = test system: Rattus norvegicus; test: Anti-inflammatory activity in albino rat assessed as inhibition of carrageenan-induced paw edema at 28 uM/kg, ip measured at 1 hr by calliper method relative to control; assay type: functional
[6] = test system: Rattus norvegicus; test: Antiinflammatory activity in albino rat assessed as reduction in carrageenan-induced paw edema by measuring thickness of right paw at 28 uM/kg, ip measured at 2 hrs by calliper method (reference value: 7.67 +/- 0.17 cm); assay type: functional
[7] = test system: Rattus norvegicus; test: Anti-inflammatory activity in albino rat assessed as inhibition of carrageenan-induced paw edema at 28 uM/kg, ip measured at 4 hrs by calliper method relative to indomethacin; assay type: functional; design: scale not given: the % may be the effect or the level left
[8] = test system: Rattus norvegicus; test: Anti-inflammatory activity in albino rat assessed as inhibition of carrageenan-induced paw edema at 28 uM/kg, ip measured at 3 hrs by calliper method relative to indomethacin; assay type: functional; design: scale not given: the % may be the effect or the level left
[9] = test system: Rattus norvegicus; test: Anti-inflammatory activity in albino rat assessed as inhibition of carrageenan-induced paw edema at 28 uM/kg, ip measured at 3 hrs by calliper method relative to control; assay type: functional
[10] = test system: Rattus norvegicus; test: Anti-inflammatory activity in albino rat assessed as inhibition of carrageenan-induced paw edema at 28 uM/kg, ip measured at 2 hrs by calliper method relative to control; assay type: functional
[11] = test system: Rattus norvegicus; test: Anti-inflammatory activity in albino rat assessed as inhibition of carrageenan-induced paw edema at 28 uM/kg, ip measured at 4 hrs by calliper method relative to control; assay type: functional
[12] = test system: Rattus norvegicus; test: Antiinflammatory activity in albino rat assessed as reduction in carrageenan-induced paw edema by measuring thickness of right paw at 28 uM/kg, ip measured immediately by calliper method (reference value: 6.83 +/-0.17 cm); assay type: functional
[13] = test system: Rattus norvegicus; test: Antiinflammatory activity in albino rat assessed as reduction in carrageenan-induced paw edema by measuring thickness of right paw at 28 uM/kg, ip measured at 4 hrs by calliper method (reference value: 8.50 +/- 0.58 cm); assay type: functional
[14] = test system: Rattus norvegicus; test: Antiinflammatory activity in albino rat assessed as reduction in carrageenan-induced paw edema by measuring thickness of right paw at 28 uM/kg, ip measured at 0.5 hrs by calliper method (reference value: 7.33 +/- 0.17 cm); assay type: functional
[15] = test system: Rattus norvegicus; test: Anti-inflammatory activity in albino rat assessed as inhibition of carrageenan-induced paw edema at 28 uM/kg, ip measured at 0.5 hrs by calliper method relative to control; assay type: functional
[16] = test system: Rattus norvegicus; test: Antiinflammatory activity in albino rat assessed as reduction in carrageenan-induced paw edema by measuring thickness of right paw at 28 uM/kg, ip measured at 3 hrs by calliper method (reference value: 7.83 +/- 0.33 cm); assay type: functional
[17] = target: Prostaglandin G/H synthase 1 (Homo sapiens, UniProt P23219); test: Inhibition of human COX1 expressed in CHO cells assessed as reduction in arachidonic acid-stimulated PGE2 production; assay type: cell-based
Sequence of Prostaglandin G/H synthase 1 (Homo sapiens, UniProt P23219) (P23219 whole entry): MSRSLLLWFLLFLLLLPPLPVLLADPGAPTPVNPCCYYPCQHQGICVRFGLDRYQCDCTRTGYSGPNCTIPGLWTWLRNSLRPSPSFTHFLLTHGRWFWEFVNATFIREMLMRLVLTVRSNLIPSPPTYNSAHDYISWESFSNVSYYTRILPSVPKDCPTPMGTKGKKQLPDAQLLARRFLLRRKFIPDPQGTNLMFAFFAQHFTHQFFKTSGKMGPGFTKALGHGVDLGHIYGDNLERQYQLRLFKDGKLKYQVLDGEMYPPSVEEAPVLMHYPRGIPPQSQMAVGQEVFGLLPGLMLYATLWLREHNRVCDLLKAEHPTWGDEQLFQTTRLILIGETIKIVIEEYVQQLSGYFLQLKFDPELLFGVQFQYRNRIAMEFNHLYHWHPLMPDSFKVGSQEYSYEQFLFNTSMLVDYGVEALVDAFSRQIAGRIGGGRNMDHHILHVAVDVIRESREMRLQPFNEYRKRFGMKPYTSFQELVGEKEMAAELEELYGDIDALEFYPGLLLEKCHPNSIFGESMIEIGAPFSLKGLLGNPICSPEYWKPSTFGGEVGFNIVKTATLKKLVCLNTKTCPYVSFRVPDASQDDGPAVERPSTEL

[18] = Ulcerogenic activity in albino rat assessed as effect on gastric mucosa membrane at 10 to 50 mg/kg, po measured after 6 hrs by H and E staining based light microscopic assay; assay type: toxicity, organism-based; details: in vivo
[19] = Ulcerogenic activity in albino rat assessed as congestion of blood vessel at 10 to 50 mg/kg, po measured after 6 hrs by H and E staining based light microscopic assay; assay type: toxicity, organism-based; details: in vivo
[20] = Ulcerogenic activity in albino rat assessed as ulcer formation with distorted gastric gland at 10 to 50 mg/kg, po measured after 6 hrs by H and E staining based light microscopic assay; assay type: toxicity, organism-based; details: in vivo
[21] = Ulcerogenic activity in albino rat assessed as damage of gastric mucosa surface epithelium at 10 to 50 mg/kg, po measured after 6 hrs by H and E staining based light microscopic assay; assay type: toxicity, organism-based; details: in vivo
[22] = Ulcerogenic activity in albino rat assessed as damage of scarred mucosal epithelium at 10 to 50 mg/kg, po measured after 6 hrs by H and E staining based light microscopic assay; assay type: toxicity, organism-based; details: in vivo

IC50 [1]: 5.33 µM
IC50 [2]: 4.12 µM
SMILES: CSc1nc2ccccc2n1-c1csc(NC(=O)c2ccccc2)n1

IC50 [2]: 1.82 µM
SMILES: CCn1c(-n2cc(/C=N/N=c3\scc(-c4ccc(Br)cc4)n3-c3ccccc3)c(-c3ccc(OC)cc3)n2)nc2c1c(=O)n(C)c(=O)n2C

IC50 [2]: 1.98 µM
SMILES: CCn1c(-n2cc(/C=N/N=C3/NC(=O)CS3)c(-c3ccc(OC)cc3)n2)nc2c1c(=O)n(C)c(=O)n2C

IC50 [1]: 11.7 µM
IC50 [2]: 2.93 µM
SMILES: CSc1nc2ccccc2n1-c1csc(NCC(C)=O)n1

IC50 [1]: 9.84 µM
IC50 [2]: 3.98 µM
SMILES: CSc1nc2ccccc2n1-c1csc(=N)n1CC(=O)c1ccccc1

IC50 [2]: 11.9 µM
SMILES: O=C1N/C(=N\c2nnc(-c3ccc(O)cc3)s2)S/C1=C\c1ccc(Cl)c(Cl)c1

IC50 [1]: 13.2 µM
IC50 [2]: 2.14 µM
SMILES: CSc1nc2ccccc2n1-c1csc(NC/C(C)=N/N=c2\scc(-c3ccc(C)cc3)n2-c2ccccc2)n1

IC50 [3]: 0.06 to 0.81 µM
SMILES: O=[N+]([O-])c1ccc(-c2nnc(Cn3c(CN4CCCCC4)nc4ccccc43)o2)cc1

IC50 [1]: 10.7 µM
IC50 [2]: 2.98 µM
SMILES: CSc1nc2ccccc2n1-c1csc(NC/C(C)=N/NC(=S)Nc2ccccc2)n1
Activity [4]: 5 cm
inhibition (INH) [5]: 53.73%
Activity [6]: 4.67 cm
Activity [7]: 87.28%
Activity [8]: 102.31%
inhibition (INH) [9]: 70.97%
inhibition (INH) [10]: 64.1%
inhibition (INH) [11]: 68.8%
Activity [12]: 7.33 cm
Activity [13]: 5.5 cm
Activity [14]: 5.67 cm
inhibition (INH) [15]: 38.43%
Activity [16]: 4.83 cm

IC50 [1]: 12.4 µM
IC50 [2]: 1.85 µM
SMILES: CSc1nc2ccccc2n1-c1csc(NC/C(C)=N/N=c2\scc(-c3ccccc3)n2-c2ccccc2)n1

IC50 [3]: 0.06 to 0.81 µM
SMILES: Clc1ccc(-c2nnc(Cn3c(CN4CCCCC4)nc4ccccc43)o2)cc1

IC50 [3]: 0.06 to 0.81 µM
SMILES: Fc1ccc(-c2nnc(Cn3c(CN4CCCCC4)nc4ccccc43)o2)cc1

IC50 [17]: > 50 µM
SMILES: CS(=O)(=O)c1ccc(-c2c(-c3ccccc3)nc3sccn23)cc1

IC50 [1]: 7.11 µM
IC50 [2]: 5.11 µM
SMILES: CSc1nc2ccccc2n1-c1csc(NC(=O)c2ccc(Cl)cc2)n1

SMILES: O=c1c(O)c(-c2ccc(O)c(O)c2)oc2cc(O)cc(O)c12 [QUERCETIN]
IC50 [2]: 3.34 µM

IC50 [1]: 4.17 µM
IC50 [2]: 6.56 µM
SMILES: CSc1nc2ccccc2n1-c1csc(N)n1

IC50 [1]: 10.6 µM
IC50 [2]: 1.96 µM
SMILES: CSc1nc2ccccc2n1-c1csc(NC/C(C)=N/N=C2\SCC(=O)N2c2ccccc2)n1
Activity [4]: 4.67 cm
Activity [18]: Non-Toxic
inhibition (INH) [5]: 61.6%
Activity [6]: 4.17 cm
Activity [7]: 102.21%
Activity [8]: 119.4%
inhibition (INH) [9]: 82.83%
inhibition (INH) [10]: 74.83%
inhibition (INH) [11]: 80.57%
Activity [12]: 7 cm
Activity [13]: 4.5 cm
Activity [14]: 5.67 cm
inhibition (INH) [15]: 38.4%
Activity [19]: Toxic
Activity [16]: 3.83 cm

IC50 [1]: 13.2 µM
IC50 [2]: 1.67 µM
SMILES: CSc1nc2ccccc2n1-c1csc(NC/C(C)=N/N=c2\scc(-c3ccc(Cl)cc3)n2-c2ccccc2)n1
Activity [4]: 5.33 cm
inhibition (INH) [5]: 46.27%
Activity [6]: 5 cm
Activity [7]: 93.2%
Activity [8]: 109.08%
inhibition (INH) [9]: 75.67%
inhibition (INH) [10]: 56.67%
Activity [12]: 7.17 cm
Activity [13]: 5.67 cm
Activity [14]: 6.33 cm
inhibition (INH) [15]: 22.67%
Activity [16]: 4.67 cm

IC50 [1]: 8.14 µM
IC50 [2]: 4.15 µM
SMILES: CSc1nc2ccccc2n1-c1csc(NCC(=O)c2ccc(Cl)cc2)n1

IC50 [1]: 5.97 µM
IC50 [2]: 5.46 µM
SMILES: CSc1nc2ccccc2n1-c1csc2nc(-c3ccccc3)cn12

IC50 [1]: 6.23 µM
IC50 [2]: 4.96 µM
SMILES: CSc1nc2ccccc2n1-c1csc(NC(=O)c2ccc(C)cc2)n1

IC50 [3]: 0.06 to 0.81 µM
SMILES: Fc1ccccc1-c1nnc(Cn2c(CN3CCCCC3)nc3ccccc32)o1

IC50 [2]: 1.76 µM
SMILES: CCn1c(-n2cc(/C=N/N=c3\[nH]c(-c4ccc(Br)cc4)cs3)c(-c3ccc(OC)cc3)n2)nc2c1c(=O)n(C)c(=O)n2C

SMILES: COc1ccc2c(c1)c(CC(=O)O)c(C)n2C(=O)c1ccc(Cl)cc1 [INDOMETHACIN]
Activity [20]: Toxic
Activity [21]: Toxic
Activity [4]: 5 cm
inhibition (INH) [5]: 54.17%
Activity [6]: 4.67 cm
inhibition (INH) [9]: 69.37%
inhibition (INH) [10]: 63.7%
inhibition (INH) [11]: 78.83%
Activity [22]: Toxic
Activity [12]: 7.17 cm
Activity [13]: 4.17 cm
Activity [14]: 5.83 cm
inhibition (INH) [15]: 34.7%
Activity [19]: Toxic
Activity [16]: 4.5 cm

— ChEMBL document CHEMBL4627319, “Novel class of benzimidazole-thiazole hybrids: The privileged scaffolds of potent anti-inflammatory activity with dual inhibition of cyclooxygenase and 15-lipoxygenase enzymes” (Bioorg Med Chem, 2020)
